Consider seven substances from patent US20260109729A1, “RUTHENIUM COMPLEXES FOR INHIBITION OF GALECTINS, METHOD OF THEIR PREPARATION, AND USE THEREOF” (priority 2023, published 2026).

Where two headings read alike, the source gives them in different places.

One experiment deals with T1, human galectin-3-CRD (Homo sapiens, UniProt P17931).
T1 construct: human galectin-3-CRD; fused on or other part: N-terminal His6-GST tag, cleaved off by TEV protease before the fluorescence anisotropy test
In words: Fluorescence anisotropy competitive inhibition assay, galectin 3. It counts as binding. To be noted: average and standard deviation; for Ki: Ki calculated from IC50 with online calculator, read-out: Ki against human galectin 3-CRD; for IC50: protein 50 nM, probe 5 nM, at least three measurements, read-out: IC50 against human galectin-3-CRD under measured condition. Here is the method:
As a competitive fluorescent probe, the compound 3,3′-dideoxy-3-[4-(fluorescein-5-yl-carbonylamino-methyl)-1H-1,2,3-triazol-1-yl]-3′-[4-(3-fluorophenyl)-1H-1,2,3-triazol-1-yl]-1,1′-sulfanediyl-di-β-D-galactopyranoside was used in the measurements. Fluorescence anisotropy was measured using a Tecan Spark multimode microplate reader equipped with fluorescence polarization filters and black polystyrene round-bottomed microtiter plates (Corning®, 384 wells) in samples with a final volume of […]. The samples were incubated in the dark for 30 minutes before measurement.
The Kd values were obtained using nonlinear regression performed by GraphPad Prism software (version 10.0.2, GraphPad, USA) for direct ligand-protein interaction using the formula: A=A0+(Amax−A0)×([G]/(Kd+[G])), where A0 is the anisotropy of the probe in the absence of galectin, Amax is the maximum achieved anisotropy of the probe with increasing galectin concentration, [G] is the total galectin concentration in a measured sample, and A is the measured anisotropy of the measured sample. […] Raw anisotropy data from the reader were plotted against concentration using GraphPad Prism software (version 10.0.2, GraphPad, USA) and nonlinear fitting “[Inhibitor]vs. response—Variable slope (four parameters)” analysis was used to calculate the IC50 values (half-maximal inhibitory concentration) for each titration. The IC50 values from each titration experiment were then used to calculate the inhibition constant Ki using an online calculator (http://websites.umich.edu/-shaomengwanglab/software/calc_ki/index.html).

The target of experiment [1] is T2, human galectin-1 (Homo sapiens, UniProt P09382). In words: Fluorescence anisotropy competitive inhibition assay, galectin 1. It counts as binding. To be noted: for Ki: Ki calculated from IC50 with online calculator, read-out: Ki against human galectin-1; for Ki / IC50: average and standard deviation; for affinity to galectin-1 compared with the fluorescent probe: exact Ki not determinable, given as possible range; for IC50: protein 500 nM, probe 100 nM, at least three measurements, read-out: IC50 against human galectin-1 under measured condition. Set-up: His6-GST (N, cleaved yes); made in house; host or cells: E. coli BL21 RILP. Here is the method: Analytical Biochemistry 2004, 334 (1), 36-47, page 39, paragraph “Fluorescence Polarization”. As a competitive fluorescent probe, the compound 3,3′-dideoxy-3-[4-(fluorescein-5-yl-carbonylamino-methyl)-1H-1,2,3-triazol-1-yl]-3′-[4-(3-fluorophenyl)-1H-1,2,3-triazol-1-yl]-1,1′-sulfanediyl-di-β-D-galactopyranoside was used in the measurements. Fluorescence anisotropy was measured using a Tecan Spark multimode microplate reader equipped with fluorescence polarization filters and black polystyrene round-bottomed microtiter plates (Corning®, 384 wells) in samples with a final volume of […]. The samples were incubated in the dark for 30 minutes before measurement.
The Kd values were obtained using nonlinear regression performed by GraphPad Prism software (version 10.0.2, GraphPad, USA) for direct ligand-protein interaction using the formula: A=A0+(Amax−A0)×([G]/(Kd+[G])), where A0 is the anisotropy of the probe in the absence of galectin, Amax is the maximum achieved anisotropy of the probe with increasing galectin concentration, [G] is the total galectin concentration in a measured sample, and A is the measured anisotropy of the measured sample. […] Raw anisotropy data from the reader were plotted against concentration using GraphPad Prism software (version 10.0.2, GraphPad, USA) and nonlinear fitting “[Inhibitor]vs. response—Variable slope (four parameters)” analysis was used to calculate the IC50 values (half-maximal inhibitory concentration) for each titration. The IC50 values from each titration experiment were then used to calculate the inhibition constant Ki using an online calculator (http://websites.umich.edu/-shaomengwanglab/software/calc_ki/index.html). The used model is described in the following publication: Development and optimization of a binding assay for the XIAP BIR3 domain using fluorescence polarization, Analytical Biochemistry 2004, 332 (2), 261-273.

The test system of the next experiment is MCF-10A. In words: MTT cytotoxicity assay, MCF-10A. It counts as cell-based, human. The settings on record: non-tumor epithelial line, 24-72 hours incubation. The procedure:
(§1) This assay is based on the reduction of the yellow soluble 3-[4,5-dimethylthiazol-2-yl]-2,5-diphenyl tetrazolium bromide (MTT) to insoluble formazan (blue star-shaped crystals). The reaction takes place on the mitochondrial membrane of living cells. Subsequently, the formazan is dissolved by adding a strong detergent (dimethyl sulfoxide, DMSO), and the color is evaluated spectrophotometrically at a wavelength of 570-595 nm.
(§2) Human cell lines derived from ovarian carcinoma (A2780, SK-OV-3), breast carcinoma (MDA-MB-231, MCF-7), and non-tumor epithelial line MCF-10A were used for the cytotoxicity test. Additionally, a cell line derived from embryonic kidney cells HEK293 was used as a control. A2780 cells were cultured in RPMI 1640 medium (Sigma-Aldrich) containing 10% fetal bovine serum (Biochrom AG), 2 mM L-glutamine (Gibco), and 100 U/mL penicillin/streptomycin (Biosera). SK-OV-3 cells were cultured in McCoy's medium (Sigma-Aldrich) containing 10% fetal bovine serum (Biochrom AG) and 100 U/mL penicillin/streptomycin (Biosera). […] After dissolving the blue crystals, the absorbance was measured in the wells of the plate on an ELISA Reader (Multidetection reader Infinititte M1000 PRO (Tecan Group Ltd, CH)) at a wavelength of 570-595 nm. Evaluation of IC50 as the inflection point of the curve of measured absorbance values using the GraphPad Prism software (version 10.0.2, GraphPad, USA).
On the technique in general: Tetrazolium dyes change colour on reduction, which living cells bring about.

A further experiment deals with SK-OV-3. In words: MTT cytotoxicity assay, SK-OV-3. It counts as cell-based, human. The settings on record: ovarian carcinoma, 24-72 hours incubation. Here is the method:
as §1, §2

For the next experiment, the system named is HEK-293. Kind of experiment: MTT cytotoxicity assay, HEK-293. It counts as cell-based, human. The settings on record: embryonic kidney control cell line, 24-72 hours incubation. Here is the method:
as §1, §2

The test system of another experiment is A2780. In words: MTT cytotoxicity assay, A2780. It counts as cell-based, human. To be noted: ovarian carcinoma, 24-72 hours incubation. The procedure: as §1, §2
The next experiment has as its system MCF-7. In words: MTT cytotoxicity assay, MCF-7. It is filed as cell-based, human. The settings on record: breast carcinoma, 24-72 hours incubation. Here is the method: as §1, §2
A further experiment concerns the target T3, human galectin-3 (Homo sapiens, UniProt P17931).
T3 construct: made in house; host or cells: E. coli BL21 RILP
Kind of experiment: Competitive ELISA with immobilized asialofetuin, galectin 3. It counts as binding. The settings on record: His6-GST-Gal-3, average and standard deviation, at least 3 measurements, read-out: IC50 against human galectin-3. Here is the method:
(§3) An immobilized competitive ligand, asialofetuin (ASF), a glycoprotein terminated with LacNAc residues interacting with galectins, was used. Wells of microtiter plates (96-well BRAND plates-F-pureGrade, BRAND, Germany) were coated with ASF ([…] in 0.1M CO3^2−/HCO3^− buffer pH 9-9.8; 50 μL per well) and incubated overnight in a humid chamber at […]. Subsequently, wells were washed with 1×200 μL PBS (137 mM NaCl, 2.7 mM KCl, 8 mM Na2HPO4, and 2 mM KH2PO4, pH 7.4). PBS-Tween washes were performed 3×5 min following each subsequent step. The wells were blocked with 3% BSA in PBS (200 μL per well) and incubated for 1 hour at room temperature. Increasing concentrations of inhibitors in PBS buffer were mixed with His6-GST-Gal-3 or His6-GST-Gal-1 (target concentration 5 or 10 μM) and incubated in wells with ASF for 1 hour. […] The signal intensity was measured spectrophotometrically using the Multidetection reader Infinititte M1000 PRO (Tecan Group Ltd, CH) at 450 nm and corresponds to the amount of bound galectin. The respective inhibitory constant (IC50) was calculated from nonlinear regression (dose-response inhibition slope) of sigmoidal curves using GraphPad Prism software (version 10.0.2, GraphPad, USA).

Experiment [2] has as its target T2, human galectin-1. To be noted: read-out: IC50 against human galectin-1; competitive ELISA, immobilized asialofetuin, His6-GST-Gal-1; average and standard deviation, at least 3 measurements. Here is the method:
as §3
(In general: ELISA stands for enzyme-linked immunosorbent assay.)

The test system of the next experiment is MDA-MB-231. In words: MTT cytotoxicity assay, MDA-MB-231. The settings on record: breast carcinoma, 24-72 hours incubation. It is filed as cell-based, human. The procedure: as §1, §2

T1 sequence (P17931 114-250 limits assumed): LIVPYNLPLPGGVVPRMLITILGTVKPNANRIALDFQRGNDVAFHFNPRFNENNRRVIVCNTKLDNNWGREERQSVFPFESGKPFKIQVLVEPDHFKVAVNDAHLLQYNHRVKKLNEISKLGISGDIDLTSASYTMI
T2 sequence (P09382 whole entry): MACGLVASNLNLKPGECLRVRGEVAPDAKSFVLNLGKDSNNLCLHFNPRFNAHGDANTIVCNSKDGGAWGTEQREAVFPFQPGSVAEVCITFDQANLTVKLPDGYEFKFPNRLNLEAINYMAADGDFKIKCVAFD
T3 sequence (P17931 whole entry): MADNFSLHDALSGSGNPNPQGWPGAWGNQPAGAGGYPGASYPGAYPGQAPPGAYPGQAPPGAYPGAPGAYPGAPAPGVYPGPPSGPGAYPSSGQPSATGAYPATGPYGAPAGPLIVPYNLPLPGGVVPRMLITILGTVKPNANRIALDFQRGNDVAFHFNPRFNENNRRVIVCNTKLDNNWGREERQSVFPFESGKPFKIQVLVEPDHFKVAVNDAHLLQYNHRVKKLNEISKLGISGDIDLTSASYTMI

In general, Ki refers to the dissociation constant of the complex between target and ligand, obtained from inhibition or displacement. The term IC50 denotes the concentration that inhibits the measured activity by half. As for “Ruthenium Complex with Benzene and Cl Ligands and PF6^− Counterions [Compound 7]”, at human galectin-3-CRD, the Ki is 3.54 ± 0.32 µM and the half-maximal inhibitory concentration (IC50) came to 16.8 ± 1.5 µM. Further, at human galectin-1 [1], the Ki was less than 0.005 µM, the “affinity to galectin-1 compared with the fluorescent probe” value is recorded as “significantly better affinity to galectin-1 than used fluorescent probe” and the IC50 amounted to 0.307 ± 0.033 µM.
Take “Ruthenium Complex with Hexamethylbenzene and Cl Ligands and PF6^− Counterions [Compound 8]”: at human galectin-3-CRD, the inhibitory constant (Ki) was 43.4 ± 13 µM and the 50% inhibitory concentration (IC50) came out at 205 ± 63 µM. For the same substance, at human galectin-1 [1], the Ki is 0.114 ± 0.011 µM and the half-maximal inhibitory concentration (IC50) amounted to 0.498 ± 0.026 µM.
“Ruthenium Complex with p-Cymene and Cl Ligands and BF4^− Counterions [Compound 5]”: at human galectin-3-CRD, the Ki is 10.7 ± 1.9 µM and the IC50 came to 50.7 ± 9 µM. Moreover, on human galectin-1 [1], the inhibition constant Ki is less than 0.005 µM, the “affinity to galectin-1 compared with the fluorescent probe” value is “significantly better affinity to galectin-1 than used fluorescent probe” and the half-maximal inhibitory concentration (IC50) was 0.187 ± 0.004 µM.
With “Ruthenium Complex with p-Cymene and Cl Ligands and Cl^− Counterions [Compound 4]”, the IC50 is greater than 200 µM in the experiment with MCF-10A; greater than 200 µM in the experiment with SK-OV-3; 158 ± 42 µM in the experiment on HEK-293; greater than 200 µM in the experiment on A2780; greater than 200 µM in the experiment on MCF-7; 87.2 ± 4.4 µM on human galectin-3. Also, the IC50 was 0.026 ± 0.004 µM at human galectin-1 [2], 100 ± 12 µM at human galectin-3-CRD, greater than 200 µM in the experiment with MDA-MB-231 and 0.328 ± 0.018 µM on human galectin-1 [1]. Moreover, the Ki on human galectin-3-CRD was 21.2 ± 2.7 µM; at human galectin-1 [1], 0.018 ± 0.011 µM.
In the case of “Ruthenium Complex with p-Cymene and Cl Ligands and PF6^− Counterions [Compound 6]”, the IC50 in the experiment with SK-OV-3 was greater than 200 µM; with HEK-293, 174 ± 28 µM; at human galectin-3 it was 104 ± 38 µM; on human galectin-3-CRD, 71.7 ± 0.84 µM; in the experiment with MDA-MB-231 it was 141 ± 8 µM; on human galectin-1 [1] it was 0.231 ± 0.017 µM. In addition, the inhibition constant Ki is 15.2 ± 0.2 µM at human galectin-3-CRD and less than 0.005 µM at human galectin-1 [1]. Further, at human galectin-1 [1], the “affinity to galectin-1 compared with the fluorescent probe” value is recorded as “significantly better affinity to galectin-1 than used fluorescent probe”.
With “Ruthenium Complex with p-Cymene and I Ligands and I^− Counterions [Compound 9]”, the figures for the inhibitory constant (Ki) on human galectin-3-CRD and on human galectin-1 [1] were 19 ± 3.3 µM and 0.037 ± 0.009 µM, respectively. The concentration for half-maximal inhibition (IC50) on human galectin-3-CRD stood at 89.8 ± 16 µM; at human galectin-1 [1], 0.37 ± 0.016 µM.
The like results for “Ruthenium Complex with p-Cymene and I Ligands and PF6^− Counterions [Compound 10]” were, in that order, 15.6 ± 1.8 µM, 0.023 µM, 73.5 ± 8.1 µM and 0.347 ± 0.013 µM.
